According to patent US20080262079A1, “Cannabinoid Compositions and Methods of Use Thereof” (priority 2004, published 2008):

Columns and labels:
[1] = Blood analysis (cholesterol, triglyceride), body weight and tolerability in THC-treated apoE−/− mice
Description: The anti-atherosclerotic potential of THC was tested in the apolipoprotein E^−/− (apoE^−/−) mouse model of atherosclerosis. The studies presented herein utilized delta-9-Tetrahydrocannoabinol (THC), the major component of marijuana, as its immune-modulating effects have been well-documented in several studies. (See e.g., Srivastava, Immuopharmacology 40, 179-85 (1998); Zhu, J Immunol 165, 373-80 (2000); Yuan J Neuroimmunol 133, 124-31 (2002); Lyman, J Neuroimmunol 23, 73-81 (1989); Malfait, Proc Natl Acad Sci USA 97, 9561-6 (2000)). In addition, this compound is already commercially available, for example as an anti-vomiting drug or for use in treating anorexia. Since potential novel anti-inflammatory therapies should be well tolerated and preferably devoid of psychotropic effects, a low dosage of THC (e.g., 1 mg/kg) was used for daily oral administration. […] (Chesher, et al., Pharmacol Biochem Behav 35:861-4 (1990); Brenneisen, et al., Int J Clin Pharmacol Ther 34, 446-52 (1996); Chan, et al., Fundam Appl Toxicol 30, 109-17 (1996)) To test the therapeutic effect of THC on established atherosclerosis, apoE^−/− mice were fed with a high cholesterol diet for 5 weeks, and THC was then administered during the following 6 weeks, while maintaining the cholesterol diet.
Animals: As a model of in vivo atherosclerosis, 10-week old male apolipoprotein E^−/− mice (apoE^−/−) C57BL/6 mice were used. For histological and atherosclerotic plaque development analysis, mice were fed with a high cholesterol diet (1.25% cholesterol, 0% cholate; Research Diets, New Brunswick N.J., USA) for 5 weeks or for 11 weeks (n=6 per group). THC was administered during the last 6 weeks of the 11 week diet group. In parallel, control mice (littermates) received milk without THC (n =8). For proliferation and cytokine analysis, littermate apoE^−/− mice were divided into 2 groups (control, THC; n=6 per group) and fed with a high cholesterol diet for 4 weeks. THC or milk only was administered during the last 2 weeks of diet. All animal studies were approved by the local Ethical Committee.
Blood Analysis: For measurements of cholesterol and triglyceride content, blood samples were collected at the beginning and the end of the diet. HDL and VLDL cholesterol fractions of sera were measured by fast protein lipid chromatography. THC levels in blood (after 2, 4 and 6 weeks of treatment) were measured by gas chromatography/mass spectrometry with a limit of detection of […] as previously described. (Giroud, et al. Forensic Sci Int 123, 159-64 (2001)).

[2] = tested on: apolipoprotein E−/− (apoE−/−) mouse model of atherosclerosis; assay: Atherosclerotic lesion size quantification in apoE−/− mice on high cholesterol diet (Sudan IV staining); type: in vivo; settings: 11 weeks high cholesterol diet, THC 1 mg/kg daily orally during last 6 weeks, vs control mice
Description: (§1) Reagents: Synthetic delta-9-THC Marinol® (Dronanbinol, Unimed Pharmaceuticals, Inc.; Marietta Ga., USA) was dissolved at 0.1 mg/ml in 5.5.% fat milk (w/v) in water. THC (1 mg/kg per day) in 1.5% fat milk (w/v) was administered orally within drinking water. Delta-9-THC for in vitro experiments was purchased as a stock solution of 1 mg/ml in methanol (Cambridge Isotype Laboratories, Andover Mass., USA) and were further diluted in warm medium immediately before use. For in vitro transmigration assays, all experiments were performed by adding corresponding dilutions of the THC vehicle (methanol) to the non-THC-treated controls.
Atherosclerotic lesion size quantification: Atherosclerotic lesions within the thoraco-abdominal aorta and aortic roots were analyzed by Sudan IV staining for lipid deposition. Quantification was performed by computer image analysis using the MetaMorph6 software (Zeiss, Feldbach, Switzerland) as previously described. (Kwak et al., Circulation 107, 1033-9 (2003)).

[3] = tested on: thioglycollate-elicited peritoneal macrophages from apoE−/− mice; assay: Transmigration assay: chemo-attraction of peritoneal macrophages to MCP-1; type: cell-based, mouse; settings: THC 0.6 ng/ml, 4 hours with 1 ng/ml mIFN-γ, 1 nM MCP-1, 90 minutes
Source text: Early processes of atherosclerosis involve endothelial dysfunction in response to cardiovascular risk factors, which triggers the recruitment of leukocytes (monocytes/macrophages and T lymphocytes) into the vessel wall. The studies described herein address whether treatment with THC inhibited cell migration using a functional in vitro experiment. Thioglycollate-stimulated peritoneal mouse macrophages were isolated from apoE^−/− mice and assayed for their migration capacity by chemo-attraction to MCP-1.
as §1, with “For in vitro transmigration assays, all experiments were performed by adding corresponding dilutions of the THC vehicle (methanol) to the non-THC-treated controls.” left out
Transmigration assay: Macrophages from the peritoneal cavity of thioglycollate-injected apoE^−/− mice were isolated 4 days post-injection and stimulated (in triplicates) for 4 hours with 1 ng/ml mIFN-γ in the presence or absence of 0.6 ng/ml THC (n=4 mice). […] Following 90 minutes of incubation, the number of migrated cells was determined by counting (blind observers) 10 microscopic fields per well.

splenocytes = assay: Proliferation assay (MTS) of conA-stimulated splenocytes isolated from THC-treated mice; type: cell-based, mouse; settings: cells from THC-treated vs untreated apoE−/− mice, conA 72 hours
Description: Proliferation Assay: Splenocytes (SC) or lymph node cells (LNC) were isolated from THC- or milk-treated mice and cultured in 96-well plates at a concentration of 5×10^6 cells/ml. Culture medium consisted of RPMI 1640 supplemented with 25 mM HEPES buffer, 2 mM L-glutamine, 100 U/ml penicillin, 0.1 mg/ml streptomycin, and 10% heat-inactivated fetal bovine serum (FBS). Cells were stimulated in triplicates with varying concentrations of concanavalin (con A; Sigma). After 72 hours, cell proliferation was determined using a non-radioactive MTS cell proliferation assay (Promega) according to the manufacturer's guidelines.

[4] = tested on: Th1 (IFN-γ, IL-12) and Th2 (IL-4, IL-10) cytokines, TGF-β; assay: Cytokine analysis by ELISA in culture supernatants of conA-stimulated lymphoid cells from THC-treated mice; type: cell-based, mouse
[5] = THC levels in blood serum of THC-treated mice (gas chromatography/mass spectrometry); type: in vivo, mouse; settings: apoE−/− mice, THC 1 mg/kg per day orally
Description: as §1

[6] = tested on: murine collagen-induced arthritis, a mouse model of rheumatoid arthritis; settings: cited from earlier work
[7] = THC 1 mg/kg per day orally, apoE−/− mice
[8] = THC-treated vs control apoE−/− mice
[9] = THC-treated vs untreated mice, conA 2 μg/ml, supernatant 48 hours, ELISA

SMILES	deaths during treatment [1, 7]	unhealthy behavior [1, 7]	body weights [1, 8]	serum cholesterol levels [1, 8]	serum triglyceride levels [1, 8]	progression of atherosclerotic lesions within the aortic roots [2]	migration of macrophages [3]	proliferative responses of in vitro stimulated splenocytes (splenocytes)	IL-4 expression ([4]; THC-treated mice, conA-stimulated cells, ELISA)	IL-12 expression ([4]; THC-treated mice, conA-stimulated cells, supernatant 48 hours, ELISA)	Th1/Th2 balance (ratio of IFN-γ to IL-10 concentration) ([4]; THC-treated vs untreated mice)	IFN-γ production [4, 9]	TGF-β production [4, 9]	IL-10 production ([4]; THC-treated vs untreated mice, conA 2 μg/ml, supernatant 72 hours, ELISA)	THC concentration in blood serum [5] [ng/mL]	proliferation and IFN-γ production of lymph node cells from treated mice (Th1 responses) ([6]; collagen-induced arthritis mice)	chronic inflammation in collagen-induced arthritis ([6]; mouse model of rheumatoid arthritis)
CCCCCc1cc(O)c2c(c1)OC(C)(C)C1CCC(C)=CC21 (centres unmarked) [THC, delta-9-tetrahydrocannabinol]	None of the THC-treated mice died during treatment	none showed unhealthy behavior	No differences	No differences	No differences	significantly reduced progression of atherosclerotic lesions	significantly inhibited	significantly reduced	neither expression of IL-4 nor IL-12 was detectable	neither expression of IL-4 nor IL-12 was detectable	shift of the Th1/Th2 balance	significantly less	modest, but not significant, downregulation	modest, but not significant, downregulation	0.6		
C=C(C)[C@@H]1CCC(C)=C[C@H]1c1c(O)cc(CCCCC)cc1O [cannabidiol]																reduced	ameliorated chronic inflammation
